Source: patent US10766894B2, “Aza-indazole compounds for use in tendon and/or ligament injuries” (NOVARTIS AG, priority 2016, dated 2020)

Each compound was assayed on mouse immortalized TT-D6 Scx-luciferase (ScxL) cell line; transcriptional activation of Scleraxis (Scx) gene (assay: SCX-LUC in vitro assay (scleraxis promoter luciferase reporter)). Settings: Mus musculus, 96 h; Examples table; TT-D6 Scx-luciferase cells, 1 ng/ml TGFβ1, four days; read-out: Scx-Luc (EC50 μM).
Type: cell-based
In the case of `Cc1cccc(S(=O)(=O)Nc2ccc(-c3ccc4[nH]nc(N)c4n3)c(Cl)c2)c1` [Example 84, N-(4-(3-amino-1H-pyrazolo[4,3-b]pyridin-5-yl)-3-chlorophenyl)-3-methylbenzenesulfonamide], the EC50 is reported as 0.045 µM.
Work on `Cc1cc(S(=O)(=O)NC2CCCCC2)ccc1-c1ccc2[nH]nc(N)c2n1` [Example 39, 4-(3-amino-1H-pyrazolo[4,3-b]pyridin-5-yl)-N-cyclohexyl-3-methylbenzenesulfonamide] yielded an EC50 of 0.473 µM.
In the case of `Nc1n[nH]c2ccc(-c3ccc(NS(=O)(=O)C4CCCCC4)cc3Cl)nc12` [Example 15, N-(4-(3-amino-1H-pyrazolo[4,3-b]pyridin-5-yl)-3-chlorophenyl)cyclohexanesulfonamide], the EC50 is reported as 0.874 µM.
`Nc1n[nH]c2ccc(-c3ccc(NS(=O)(=O)C4CCCCC4O)cc3Cl)nc12` (stereo not drawn) [Example 17, N-(4-(3-amino-1H-pyrazolo[4,3-b]pyridin-5-yl)-3-chlorophenyl)-2-hydroxycyclohexane-1-sulfonamide] showed an EC50 of 1.84 µM.
`N#Cc1cccc(S(=O)(=O)Nc2ccc(-c3ccc4[nH]nc(N)c4n3)c(Cl)c2)c1` [Example 22, N-(4-(3-amino-1H-pyrazolo[4,3-b]pyridin-5-yl)-3-chlorophenyl)-3-cyanobenzenesulfonamide] was tested, and the EC50 was 0.035 µM.
Work on `Cc1cc(S(=O)(=O)NC2(CO)CCCC2)ccc1-c1ccc2[nH]nc(N)c2n1` [Example 26, 4-(3-amino-1H-pyrazolo[4,3-b]pyridin-5-yl)-N-(1-(hydroxymethyl)cyclopentyl)-3-methylbenzenesulfonamide] yielded an EC50 of 0.811 µM.
In the case of `Cc1cc(NS(=O)(=O)c2cccc(Cl)c2)ccc1-c1ccc2[nH]nc(N)c2n1` [Example 42, N-(4-(3-amino-1H-pyrazolo[4,3-b]pyridin-5-yl)-3-methylphenyl)-3-chlorobenzenesulfonamide], the EC50 is reported as 2 µM.
In the case of `Nc1n[nH]c2ccc(-c3ccc(S(=O)(=O)NC4CCCC(O)C4)cc3Cl)nc12` (stereo not drawn) [Example 44, 4-(3-amino-1H-pyrazolo[4,3-b]pyridin-5-yl)-3-chloro-N-(3-hydroxycyclohexyl)benzenesulfonamide], the EC50 is reported as 4.12 µM.
Compound `Nc1n[nH]c2ccc(-c3ccc(NS(=O)(=O)c4ccc5c(c4)NCCO5)cc3Cl)nc12` [Example 53, N-(4-(3-amino-1H-pyrazolo[4,3-b]pyridin-5-yl)-3-chlorophenyl)-3,4-dihydro-2H-benzo[b][1,4]oxazine-6-sulfonamide] has an EC50 of 2.74 µM.
With `Nc1n[nH]c2ccc(-c3ccc(S(=O)(=O)NC4(CO)CCCC4)cc3Cl)nc12` [Example 30, 4-(3-amino-1H-pyrazolo[4,3-b]pyridin-5-yl)-3-chloro-N-(1-(hydroxymethyl)cyclopentyl)benzenesulfonamide] the EC50 was 2.07 µM.
With `Nc1n[nH]c2ccc(-c3ccc(S(=O)(=O)N4CC[C@@H](O)C4)cc3Cl)nc12` [Example 57, (R)-1-((4-(3-amino-1H-pyrazolo[4,3-b]pyridin-5-yl)-3-chlorophenyl)sulfonyl)pyrrolidin-3-ol] the EC50 was 0.633 µM.
For `Cc1cc(NS(=O)(=O)c2cccc(F)c2)ccc1-c1ccc2[nH]nc(N)c2n1` [Example 33, N-(4-(3-amino-1H-pyrazolo[4,3-b]pyridin-5-yl)-3-methylphenyl)-3-fluorobenzenesulfonamide], the EC50 was 1.02 µM.
`Nc1n[nH]c2ccc(-c3ccc(S(=O)(=O)N4CC(Oc5ccccc5)C4)cc3Cl)nc12` [Example 87, 5-(2-chloro-4-((3-phenoxyazetidin-1-yl)sulfonyl)phenyl)-1H-pyrazolo[4,3-b]pyridin-3-amine] was tested, and the EC50 was 0.83 µM.
`Nc1n[nH]c2ccc(-c3ccc(S(=O)(=O)N[C@H]4CC[C@H](O)CC4)cc3Cl)nc12` [Example 45, 4-(3-amino-1H-pyrazolo[4,3-b]pyridin-5-yl)-3-chloro-N-((1r,4r)-4-hydroxycyclohexyl)benzenesulfonamide] showed an EC50 of 4.73 µM.
Work on `Nc1n[nH]c2ccc(-c3ccc(NS(=O)(=O)c4ccc(Cl)c(Cl)c4)cc3Cl)nc12` [Example 43, N-(4-(3-amino-1H-pyrazolo[4,3-b]pyridin-5-yl)-3-chlorophenyl)-3,4-dichlorobenzenesulfonamide] yielded an EC50 of 3.31 µM.
Work on `Nc1n[nH]c2ccc(-c3ccc(S(=O)(=O)Nc4cccc(F)c4F)cc3Cl)nc12` [Example 81, 4-(3-amino-1H-pyrazolo[4,3-b]pyridin-5-yl)-3-chloro-N-(2,3-difluorophenyl)benzenesulfonamide] yielded an EC50 of 0.203 µM.
Work on `Nc1n[nH]c2ccc(-c3ccc(NS(=O)(=O)c4ccc(F)c(Cl)c4)cc3Cl)nc12` [Example 27, N-(4-(3-amino-1H-pyrazolo[4,3-b]pyridin-5-yl)-3-chlorophenyl)-3-chloro-4-fluorobenzenesulfonamide] yielded an EC50 of 1.08 µM.
Compound `Cc1cc(S(=O)(=O)N[C@H]2CC[C@H](O)CC2)ccc1-c1ccc2[nH]nc(N)c2n1` [Example 54, 4-(3-amino-1H-pyrazolo[4,3-b]pyridin-5-yl)-N-((1r,4r)-4-hydroxycyclohexyl)-3-methylbenzenesulfonamide] has an EC50 of 1.13 µM.
In the case of `Nc1n[nH]c2ccc(-c3ccc(S(=O)(=O)N[C@H]4CCC[C@H]4O)cc3Cl)nc12` [Example 35, 4-(3-amino-1H-pyrazolo[4,3-b]pyridin-5-yl)-3-chloro-N-((1S,2R)-2-hydroxycyclopentyl)benzenesulfonamide], the EC50 is reported as 2.73 µM.
Work on `COc1ccc(S(=O)(=O)Nc2ccc(-c3ccc4[nH]nc(N)c4n3)c(Cl)c2)cc1OC` [Example 79, N-(4-(3-amino-1H-pyrazolo[4,3-b]pyridin-5-yl)-3-chlorophenyl)-3,4-dimethoxybenzenesulfonamide] yielded an EC50 of 0.061 µM.
Compound `Nc1n[nH]c2ccc(-c3ccc(S(=O)(=O)N[C@H]4C[C@@H](CO)C4)cc3Cl)nc12` [Example 85, 4-(3-amino-1H-pyrazolo[4,3-b]pyridin-5-yl)-3-chloro-N-((1s,3s)-3-(hydroxymethyl)cyclobutyl)benzenesulfonamide] has an EC50 of 1.75 µM.
For `Nc1n[nH]c2ccc(-c3ccc(NS(=O)(=O)c4cccc(C(F)(F)F)c4)cc3Cl)nc12` [Example 62, N-(4-(3-amino-1H-pyrazolo[4,3-b]pyridin-5-yl)-3-chlorophenyl)-3-(trifluoromethyl)benzenesulfonamide], the EC50 was 1.3 µM.
`Cc1cc(S(=O)(=O)N2CC(F)(F)C[C@H]2CO)ccc1-c1ccc2[nH]nc(N)c2n1` [Example 37, (S)-(1-((4-(3-amino-1H-pyrazolo[4,3-b]pyridin-5-yl)-3-methylphenyl)sulfonyl)-4,4-difluoropyrrolidin-2-yl)methanol] was tested, and the EC50 was 0.593 µM.
With `Nc1n[nH]c2ccc(-c3ccc(NS(=O)(=O)c4ccc(F)cc4)cc3Cl)nc12` [Example 6, N-(4-(3-amino-1H-pyrazolo[4,3-b]pyridin-5-yl)-3-chlorophenyl)-4-fluorobenzenesulfonamide] the EC50 was 0.58 µM.
`Cc1cc(S(=O)(=O)N[C@H]2CC[C@](C)(O)CC2)ccc1-c1ccc2[nH]nc(N)c2n1` [Example 80, 4-(3-amino-1H-pyrazolo[4,3-b]pyridin-5-yl)-N-((1r,4r)-4-hydroxy-4-methylcyclohexyl)-3-methylbenzenesulfonamide] showed an EC50 of 0.225 µM.
`Nc1n[nH]c2ccc(-c3ccc(NS(=O)(=O)[C@@H]4CCCC[C@@H]4O)cc3Cl)nc12` [Example 60, (1R,2S)—N-(4-(3-amino-1H-pyrazolo[4,3-b]pyridin-5-yl)-3-chlorophenyl)-2-hydroxycyclohexane-1-sulfonamide] was tested, and the EC50 was 3.04 µM.
`Nc1n[nH]c2ccc(-c3ccc(S(=O)(=O)Nc4cccc(Cl)c4)cc3Cl)nc12` [Example 90, 4-(3-amino-1H-pyrazolo[4,3-b]pyridin-5-yl)-3-chloro-N-(3-chlorophenyl)benzenesulfonamide] showed an EC50 of 2.54 µM.
With `Cc1cc(S(=O)(=O)N[C@H]2CC[C@@H](O)CC2)ccc1-c1ccc2[nH]nc(N)c2n1` [Example 69, 4-(3-amino-1H-pyrazolo[4,3-b]pyridin-5-yl)-N-((1s,4s)-4-hydroxycyclohexyl)-3-methylbenzenesulfonamide] the EC50 was 0.912 µM.
With `Cc1cc(S(=O)(=O)N[C@H]2C[C@@H](CO)C2)ccc1-c1ccc2[nH]nc(N)c2n1` [Example 47, 4-(3-amino-1H-pyrazolo[4,3-b]pyridin-5-yl)-N-((1s,3s)-3-(hydroxymethyl)cyclobutyl)-3-methylbenzenesulfonamide] the EC50 was 5.34 µM.
`Nc1n[nH]c2ccc(-c3ccc(S(=O)(=O)Nc4ccccc4)cc3F)nc12` [Example 49, 4-(3-amino-1H-pyrazolo[4,3-b]pyridin-5-yl)-3-fluoro-N-phenylbenzenesulfonamide] gave an EC50 of 0.87 µM.
With `Cc1cc(S(=O)(=O)N[C@H]2C[C@@H](O)C2)ccc1-c1ccc2[nH]nc(N)c2n1` [Example 64, 4-(3-amino-1H-pyrazolo[4,3-b]pyridin-5-yl)-N-((1s,3s)-3-hydroxycyclobutyl)-3-methylbenzenesulfonamide] the EC50 was 0.162 µM.
`Nc1n[nH]c2ccc(-c3ccc(S(=O)(=O)Nc4cccc(Cl)c4F)cc3Cl)nc12` [Example 52, 4-(3-amino-1H-pyrazolo[4,3-b]pyridin-5-yl)-3-chloro-N-(3-chloro-2-fluorophenyl)benzenesulfonamide] showed an EC50 of 1.1 µM.
For `Nc1n[nH]c2ccc(-c3ccc(NS(=O)(=O)c4ccc(F)c(F)c4)cc3Cl)nc12` [Example 10, N-(4-(3-amino-1H-pyrazolo[4,3-b]pyridin-5-yl)-3-chlorophenyl)-3,4-difluorobenzenesulfonamide], the EC50 was 0.64 µM.
Compound `COc1cccc(S(=O)(=O)Nc2ccc(-c3ccc4[nH]nc(N)c4n3)c(Cl)c2)c1` [Example 67, N-(4-(3-amino-1H-pyrazolo[4,3-b]pyridin-5-yl)-3-chlorophenyl)-3-methoxybenzenesulfonamide] has an EC50 of 2.32 µM.
Work on `C[C@]1(O)CC[C@H](NS(=O)(=O)c2ccc(-c3ccc4[nH]nc(N)c4n3)c(Cl)c2)CC1` [Example 58, 4-(3-amino-1H-pyrazolo[4,3-b]pyridin-5-yl)-3-chloro-N-((1r,4r)-4-hydroxy-4-methylcyclohexyl)benzenesulfonamide] yielded an EC50 of 1.51 µM.

Same assay, conditions: further compounds not numbered as examples; read-out: EC50 in the Scx-Luc assay
`Nc1n[nH]c2ccc(-c3ccc(S(=O)(=O)NC4CCC(O)(C(F)(F)F)CC4)cc3Cl)nc12` [4-(3-amino-1H-pyrazolo[4,3-b]pyridin-5-yl)-3-chloro-N-((1R,4R)-4-hydroxy-4-(trifluoromethyl)cyclohexyl)benzenesulfonamide] was tested, and the EC50 was greater than 10 µM.
